Laboratory results as given in paper PMC6352937, “Inhibition of protein phosphatase-1 and -2A by ellagitannins: structure-inhibitory potency relationships and influences on cellular systems” (Journal of Enzyme Inhibition and Medicinal Chemistry, 2019).

How the values were obtained:
PP1c = experiment: Protein phosphatase assay with 32P-MLC20, native PP1c; format: biochemical; details: native PP1c from rabbit skeletal muscle; 1 µM 32P-MLC20; 10 min preincubation; mean ± SD
Procedure: (§1) Protein phosphatase activity of either skeletal muscle PP1c or PP2Ac (1.9–2.2 nM), or rPP1cα or rPP1cδ (2.71–3.72 nM), or FLAG-MYPT1-PP1c (∼9 nM) was assayed at 30 °C in absence or presence of polyphenol compounds (0.1–100 µM) in 20 mM Tris/HCl (pH 7.4), 0.1% 2-mercaptoethanol (30 µL). The purified phosphatase samples or HeLa lysates in 300-fold dilution (1.8–3.6 µg/ml) in the presence or absence of 2 µM I2 were preincubated with increasing concentration of the polyphenol compounds (0–100 µM) for 10 min then the reaction was started by the addition of 1 µM ^32P-MLC20 and incubated for 10 min. Polyphenol-treated HeLa cells were washed then lysed in 50 mM Tris/HCl (pH 8.0), 150 mM NaCl, 1% (V/V) Triton X-100, 0.15% (w/v) protease inhibitor cocktail. The phosphatase activity was assayed with 1 µM ^32P-MLC20 for 30 s in 3-fold final dilution (0.24–0.43 mg/ml). The reactions were terminated by the addition of 200 µL of 10% trichloroacetic acid and 200 µL of 6 mg/mL BSA solution. The samples were centrifuged for 3 min at 10,000 rpm and the supernatants (370 µL) were transferred into scintillation vials and the radioactivity of the released ^32Pi was determined in Tri-Carb 2800TR scintillation counter.
(§2) The ellagitannins (Figure 1) assayed on the activity of PP1c or PP2Ac in this study are similar to PGG in composition, but they differ structurally in two important aspects: (i) all of them include hexahydroxydiphenoyl unit linked in various positions, except for pedunculagin which includes two of these linkages; (ii) tellimagrandin I, pedunculagin, and praecoxin B have free glycosidic hydroxyls, while GHG has an unmodified hydroxyl at position 3 of the glucopyranose ring. […] Inhibition of the phosphatase activity by ellagitannins in HeLa cell lysate was also assessed. First, we determined the activity of PP1 and PP2A in the lysates using I2 to inhibit PP1, and low concentration of OA (2 nM) to suppress PP2A specifically, in order to determine the contribution of PP1 and PP2A to the phosphatase activity of lysates (Figure 2(E)).
(§3) Figure 2. The effect of ellagitannins on the activity of PP1 and PP2A. Ellagitannins (0.1–100 µM) were preincubated with the phosphatase samples for 10 min and the phosphatase activity was determined in triplicates with 1 µM ^32P-MLC20 substrate as described in “Materials and methods” section. […] The effect of tellimagrandin I on the activity of rPP1cα (^) and rPP1cδ (●) (C), or FLAG-MYPT1-PP1cδ (▼) (D), or on the phosphatase activity of HeLa lysate in the presence of I2 (□) (F). The effect of I2 and OA on the phosphatase activity of HeLa lysate (E). Phosphatase activity in the absence of ellagitannins, I2 or OA was taken as 100%. Data are means ± SD (n = 3–5).

PP2Ac = experiment: Protein phosphatase assay with 32P-MLC20, native PP2Ac; format: biochemical; details: native PP2Ac from rabbit skeletal muscle; 1 µM 32P-MLC20; 10 min preincubation; mean ± SD
Procedure: as §1, §2, §3

HeLa lysate = experiment: Phosphatase activity of HeLa cell lysate (32P-MLC20); format: biochemical, human; details: HeLa lysate in 300-fold dilution; 1 µM 32P-MLC20; mean ± SD
Procedure: as §1, §2, §3

SNAP-25^Thr138 = experiment: Phosphorylation of SNAP-25 Thr138 in cortical synaptosomes (Western blot); format: cell-based, mouse; details: synaptosomes treated 45 min at 30 °C; ellagitannins 1-100 µM, TMC 10 µM
Procedure: (§4) Preparation of synaptosomes from murine brain cortex was carried out as described previously. Functional synaptosomes were kept in Krebs buffer (118 mM NaCl, 5 mM KCl, 25 mM NaHCO3, 1 mM MgCl2, 10 mM D-glucose, pH 7.4). After preparation, synaptosomes were treated with either tellimagrandin I or mahtabin A in 1, 10 or 100 µM final concentrations, or with 10 µM tautomycetin (TMC) for 45 min at 30 °C. After the treatments synaptosomes were applied for exocytosis assay or were lysed and the protein lysates were subjected to Western blot. For exocytosis assay an already established protocol[25] was used. FM 2–10 water-soluble styryl dye was incorporated first into the outer leaflet of synaptosome membrane, then into the synaptosomes. Exocytosis was induced by addition of 30 mM KCl to the synaptosomes. The fluorescent intensity of FM 2–10 styryl dye negatively correlated with the extent of synatposomal exocytosis and was measured by Fluoroskan FL (excitation: 488 nm, emission: 540 nm). Western blot of synaptosome proteins was carried out as described previously[24]^,[25].
Figure 5. […] E: Representative Western blot with anti- SNAP-25^pThr138 specific antibody. F: Relative changes in the amount of SNAP-25^pThr138 determined by densitometry of the Western blots normalised on the bands obtained for the loading controls. Data are means ± SD (n = 3). ANOVA *p < .05, **p < .01, ***p < .001, n.s.: not significant.

rPP1cα [1] = target: T1, rPP1cα (Homo sapiens, UniProt P62136); experiment: Protein phosphatase assay, recombinant rPP1cα; format: biochemical; details: purified recombinant FLAG-tagged PP1cα
T1 construct: FLAG; made in house
T1 sequence (P62136 whole entry): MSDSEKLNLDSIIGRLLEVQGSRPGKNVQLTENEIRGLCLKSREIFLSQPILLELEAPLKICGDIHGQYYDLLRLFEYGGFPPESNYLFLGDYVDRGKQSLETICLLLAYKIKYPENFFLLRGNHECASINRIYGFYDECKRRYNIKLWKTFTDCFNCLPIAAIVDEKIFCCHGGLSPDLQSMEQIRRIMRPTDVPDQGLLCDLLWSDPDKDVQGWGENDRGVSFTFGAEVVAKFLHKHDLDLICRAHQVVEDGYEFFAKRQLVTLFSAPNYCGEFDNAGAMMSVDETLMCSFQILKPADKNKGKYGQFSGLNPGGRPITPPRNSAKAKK
Procedure: as §1, with “The reactions were terminated by the addition of 200 µL of 10% trichloroacetic acid and 200 µL of 6 mg/mL BSA solution.” left out
(§5) Figure 2. […] Ellagitannins (0.1–100 µM) were preincubated with the phosphatase samples for 10 min and the phosphatase activity was determined in triplicates with 1 µM ^32P-MLC20 substrate as described in “Materials and methods” section. […]

rPP1cδ [2] = target: T2, rPP1cδ (Homo sapiens, UniProt P62140); experiment: Protein phosphatase assay, recombinant rPP1cδ; format: biochemical; details: purified recombinant hexahistidine-tagged PP1cδ
T2 construct: hexahistidine; made in house
T2 sequence (P62140 whole entry): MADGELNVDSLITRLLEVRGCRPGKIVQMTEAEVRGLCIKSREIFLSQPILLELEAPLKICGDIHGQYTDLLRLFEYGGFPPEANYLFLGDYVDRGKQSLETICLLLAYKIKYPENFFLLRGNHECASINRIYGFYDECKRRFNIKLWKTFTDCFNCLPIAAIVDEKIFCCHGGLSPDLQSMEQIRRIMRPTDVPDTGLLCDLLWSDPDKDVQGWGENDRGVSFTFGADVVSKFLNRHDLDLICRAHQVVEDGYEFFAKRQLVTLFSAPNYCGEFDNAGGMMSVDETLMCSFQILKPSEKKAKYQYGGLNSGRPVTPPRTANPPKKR
Procedure: as §1, with “The reactions were terminated by the addition of 200 µL of 10% trichloroacetic acid and 200 µL of 6 mg/mL BSA solution.” left out
as §5

FLAG-MYPT1-PP1cδ complex = target: T3, FLAG-MYPT1-PP1cδ complex (Homo sapiens, UniProt P62140); experiment: Protein phosphatase assay, myosin phosphatase holoenzyme; format: biochemical; details: holoenzyme ~9 nM
T3 construct: its associated proteins (such as PP1cδ) were isolated from cell lysates; expressed in transfected cells; host or cells: tsA201 cells
T3 sequence (P62140 2-327 limits assumed): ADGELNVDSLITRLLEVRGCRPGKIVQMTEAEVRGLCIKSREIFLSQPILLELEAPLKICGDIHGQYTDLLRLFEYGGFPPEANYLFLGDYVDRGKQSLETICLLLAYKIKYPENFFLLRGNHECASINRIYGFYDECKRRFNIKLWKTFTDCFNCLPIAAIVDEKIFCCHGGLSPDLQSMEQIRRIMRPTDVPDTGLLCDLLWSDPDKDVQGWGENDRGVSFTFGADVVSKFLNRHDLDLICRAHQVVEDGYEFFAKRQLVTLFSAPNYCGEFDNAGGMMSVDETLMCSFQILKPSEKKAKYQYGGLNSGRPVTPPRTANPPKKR
T3 sequence (O14974 whole entry partner): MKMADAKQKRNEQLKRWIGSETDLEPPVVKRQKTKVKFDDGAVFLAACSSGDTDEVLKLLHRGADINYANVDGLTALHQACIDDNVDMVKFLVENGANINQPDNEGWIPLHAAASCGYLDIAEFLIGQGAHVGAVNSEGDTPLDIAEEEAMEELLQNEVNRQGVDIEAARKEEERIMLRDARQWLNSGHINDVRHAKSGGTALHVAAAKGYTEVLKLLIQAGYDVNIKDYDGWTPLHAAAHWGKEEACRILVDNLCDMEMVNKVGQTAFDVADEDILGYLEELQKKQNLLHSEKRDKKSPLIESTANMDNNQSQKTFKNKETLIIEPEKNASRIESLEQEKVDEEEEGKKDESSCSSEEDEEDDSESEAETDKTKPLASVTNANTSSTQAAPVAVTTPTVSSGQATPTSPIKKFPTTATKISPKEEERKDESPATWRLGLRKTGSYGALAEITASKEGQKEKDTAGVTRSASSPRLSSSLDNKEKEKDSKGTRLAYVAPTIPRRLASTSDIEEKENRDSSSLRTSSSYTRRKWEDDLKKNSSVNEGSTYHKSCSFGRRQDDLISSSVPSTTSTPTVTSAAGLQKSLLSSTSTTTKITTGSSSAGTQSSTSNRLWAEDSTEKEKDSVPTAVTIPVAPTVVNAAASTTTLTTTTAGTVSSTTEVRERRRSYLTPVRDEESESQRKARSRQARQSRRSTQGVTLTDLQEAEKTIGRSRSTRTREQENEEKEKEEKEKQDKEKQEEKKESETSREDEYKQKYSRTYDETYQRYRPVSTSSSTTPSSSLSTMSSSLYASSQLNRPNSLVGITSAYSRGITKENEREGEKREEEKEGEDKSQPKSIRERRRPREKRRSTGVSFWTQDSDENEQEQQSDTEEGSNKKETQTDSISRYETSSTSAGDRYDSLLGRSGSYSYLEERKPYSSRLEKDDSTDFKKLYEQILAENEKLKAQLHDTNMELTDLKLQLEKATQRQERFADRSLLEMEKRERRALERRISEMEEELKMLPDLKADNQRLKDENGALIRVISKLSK
Procedure: as §1, with “The reactions were terminated by the addition of 200 µL of 10% trichloroacetic acid and 200 µL of 6 mg/mL BSA solution.” left out
as §5

PP2A = experiment: Phosphatase activity of HeLa lysate in the presence of I2 (activity due to PP2A); format: biochemical, human; details: PP1 suppressed by 2 µM I2; up to the highest concentration applied (100 µM)
Procedure: as §1, with “Polyphenol-treated HeLa cells were washed then lysed in 50 mM Tris/HCl (pH 8.0), 150 mM NaCl, 1% (V/V) Triton X-100, 0.15% (w/v) protease inhibitor cocktail. The phosphatase activity was assayed with 1 µM ^32P-MLC20 for 30 s in 3-fold final dilution (0.24–0.43 mg/ml). The reactions were terminated by the addition of 200 µL of 10% trichloroacetic acid and 200 µL of 6 mg/mL BSA solution.” left out
The ellagitannins (Figure 1) assayed on the activity of PP1c or PP2Ac in this study are similar to PGG in composition, but they differ structurally in two important aspects: (i) all of them include hexahydroxydiphenoyl unit linked in various positions, except for pedunculagin which includes two of these linkages; (ii) tellimagrandin I, pedunculagin, and praecoxin B have free glycosidic hydroxyls, while GHG has an unmodified hydroxyl at position 3 of the glucopyranose ring. […] Inhibition of the phosphatase activity by ellagitannins in HeLa cell lysate was also assessed. […]

rPP1cα [3] = target: T1, rPP1cα; experiment: Isothermal titration calorimetry (ITC); format: binding; details: 25 °C
Procedure: Isothermal titration calorimetry (ITC) experiments were carried out at 25 °C by a MicroCal ITC200 instrument. The assay buffer contains 25 mM Tris/HCl (pH 8.0), 100 mM NaCl, and 1 mM DTT. rPP1cα was dialysed in the assay buffer two times for two hours freshly prior to measurements and diluted to 5–10 µM then transferred into the sample cell of the calorimeter. Tellimagrandin I was diluted to 60–100 µM in the assay buffer and measured into the syringe. 18 times 2 µL ligand was then injected into the cell at a stirring rate of 300 rpm. The reference power was 5 µcal/sec and the assay buffer was loaded in the reference cell. The titration data were analysed with MicroCal ITC-Origin software using one sets of site model to obtain binding parameters of ligand-protein interaction.
(§6) Figure 3. […] The changes in either, the intrinsic fluorescence of unlabelled rPP1cα upon binding to tellimagrandin I and PGG, or changes in fluorescent signal from rPP1cα extrinsically labelled with NT647 dye upon binding with EGCG, were determined at a range of concentration of polyphenols, and the fractions bound are presented. Data points are means ± SD (n = 3).

rPP1cδ [4] = target: T2, rPP1cδ; experiment: Surface plasmon resonance (SPR); format: binding; details: rPP1cδ immobilised on CM5 chip; 1:1 interaction model
rPP1cα [5] = target: T1, rPP1cα; experiment: Microscale thermophoresis (MST); format: binding; details: unlabelled rPP1cα, intrinsic fluorescence (NT.LabelFree)
Procedure: as §6

HeLa cells [6] = experiment: HeLa cell viability, Alamar-blue assay; format: cell-based, human; details: 24 h incubation, serum free; 0-50 µM tested
Procedure: HeLa cells and tsa201 cells were cultured as recommended by the supplier. Prior to treatments HeLa cells were serum starved in MEM medium supplemented with 2 mM L-glutamine for 17 h. For phosphatase activity assay cells were treated with increasing concentration of polyphenol compounds (1–50 µM) for 1 h. To assess cell viability by Alamar-blue assay serum starved cells were treated with ellagitannins (1–50 µM) for 24 h in serum free MEM medium. The media was exchanged for resazurin (20 µM) containing serum free media and the cells were incubated for 2 h to enhance resorufin formation by the viable cells. The emission of resorufin was measured by a fluorimeter at 620 nm.
Figure 4. Distinct influence of ellagitannins on the survival and phosphatase activity of HeLa cells. The effect of tellimagrandin I and mahtabin A was assayed on the survival (A) and the phosphatase activity (B) of HeLa cells in 0–50 µM concentration range as detailed in Materials and methods. The cell survival and the phosphatase activity in the absence of ellagitannins were taken as 100%. Data represent means ± SD (n = 3). ANOVA *p < .05, **p < .01, ***p < .001, n.s.: not significant.

HeLa cells [7] = experiment: Phosphatase activity of polyphenol-treated HeLa cells; format: cell-based, human; details: 1 h incubation; 0-50 µM tested
Procedure: as §1
HeLa cells and tsa201 cells were cultured as recommended by the supplier. […] The emission of resorufin was measured by a fluorimeter at 620 nm. […]

[8] = system: mouse cortical synaptosomes; experiment: KCl induced exocytosis of cortical synaptosomes (FM 2-10 dye); format: cell-based; details: 30 mM KCl; FM 2-10 fluorescence; 45 min treatment
Procedure: as §4
Figure 5. […] E: Representative Western blot with anti- SNAP-25^pThr138 specific antibody. F: Relative changes in the amount of SNAP-25^pThr138 determined by densitometry of the Western blots normalised on the bands obtained for the loading controls. Data are means ± SD (n = 3). […]

O=C(O[C@@H]1O[C@@H]2COC(=O)c3cc(O)c(O)c(O)c3-c3c(cc(O)c(O)c3O)C(=O)O[C@H]2[C@H](O)[C@H]1OC(=O)c1cc(O)c(O)c(O)c1)c1cc(O)c(O)c(O)c1 [GHG, 1,2-di-O-galloyl-4,6-(S)-hexahydroxydiphenoyl-β-D-glucose]
IC50 (PP1c): 1410 ± 300 nM
IC50 (PP2Ac): > 100 µM
IC50 (HeLa lysate): 13 ± 3.3 µM

O=C(OC[C@H]1OC(O)[C@@H]2OC(=O)c3cc(O)c(O)c(O)c3-c3c(cc(O)c(O)c3O)C(=O)O[C@H]2[C@@H]1OC(=O)c1cc(O)c(O)c(O)c1)c1cc(O)c(O)c(O)c1 (stereo partly drawn) [praecoxin B]
IC50 (PP1c): 790 ± 110 nM
IC50 (PP2Ac): 63.9 ± 5.52 µM
IC50 (HeLa lysate): 6.97 ± 1.12 µM

tautomycetin [TMC, reference compound]
Effect on phosphorylation level of SNAP-25^Thr138 (SNAP-25^Thr138): increased the amount of SNAP-25^pThr138

O=C(O[C@H]1[C@@H]2OC(=O)c3cc(O)c(O)c(O)c3-c3c(cc(O)c(O)c3O)C(=O)OC[C@H]2OC(O)[C@@H]1OC(=O)c1cc(O)c(O)c(O)c1)c1cc(O)c(O)c(O)c1 (stereo partly drawn) [tellimagrandin I]
IC50 (PP1c): 200 ± 20 nM
IC50 (PP2Ac): 19.5 ± 8.6 µM
IC50 (HeLa lysate): 4.46 ± 0.95 µM
IC50 (rPP1cα [1]): 230 ± 50 nM
IC50 (rPP1cδ [2]): 130 ± 20 nM
IC50 (FLAG-MYPT1-PP1cδ complex): 110 ± 20 nM
Inhibition of phosphatase activity due to PP2A in HeLa lysate (PP2A): slightly
Ka (ITC) (rPP1cα [3]): 4.68 ± 1.02x10^6 M^−1
S (ITC) (rPP1cα [3]): 0.0036 kcal/mol/K
N (ITC) (rPP1cα [3]; binding stoichiometry): 1.16 ± 0.03
Kd (rPP1cα [3]; one sets of site model): 230 nM
Kd (rPP1cδ [4]): 310 nM
Kd (rPP1cα [5]): 1780 ± 590 nM
Effect on viability (survival) of HeLa cells (HeLa cells [6]): suppressed the viability of HeLa cells dramatically
Effect on phosphatase activity of HeLa cells (HeLa cells [7]): partially reduced the phosphatase activity
Effect on phosphorylation level of SNAP-25^Thr138 (SNAP-25^Thr138): had no any effect
Effect on KCl induced synaptosomal exocytosis [8]: without any influence
